Assay results as given in article PMC11827123 (Journal of medicinal chemistry, 2023).
One block for each compound: values may come before it.

What was measured:
Microsomal = assay type: in vitro ADME, human; details: result in words
MOLT4 cells = assay: Quantitative MS degradation proteomics in MOLT4 cells; details: 6 h treatment
RBC = RBC lysis in vitro assay; assay type: cell-based
[1] = tested on: HiBiT-tagged v3 EML4-ALK (WT and clinically relevant mutations); assay: EML4-ALK HiBiT degradation assay, general / clinically relevant mutations; details: result in words
[2] = target: HiBiT-tagged v3 EML4-ALK G1202R (Homo sapiens, UniProt Q9HC35+Q9UM73, G1202R); assay: EML4-ALK HiBiT degradation assay, G1202R; details: Ba/F3, result in words
HiBiT-tagged v3 EML4-ALK G1202R, sequence (Q9UM73 1058-1620 G1202R limits assumed, one chain of several): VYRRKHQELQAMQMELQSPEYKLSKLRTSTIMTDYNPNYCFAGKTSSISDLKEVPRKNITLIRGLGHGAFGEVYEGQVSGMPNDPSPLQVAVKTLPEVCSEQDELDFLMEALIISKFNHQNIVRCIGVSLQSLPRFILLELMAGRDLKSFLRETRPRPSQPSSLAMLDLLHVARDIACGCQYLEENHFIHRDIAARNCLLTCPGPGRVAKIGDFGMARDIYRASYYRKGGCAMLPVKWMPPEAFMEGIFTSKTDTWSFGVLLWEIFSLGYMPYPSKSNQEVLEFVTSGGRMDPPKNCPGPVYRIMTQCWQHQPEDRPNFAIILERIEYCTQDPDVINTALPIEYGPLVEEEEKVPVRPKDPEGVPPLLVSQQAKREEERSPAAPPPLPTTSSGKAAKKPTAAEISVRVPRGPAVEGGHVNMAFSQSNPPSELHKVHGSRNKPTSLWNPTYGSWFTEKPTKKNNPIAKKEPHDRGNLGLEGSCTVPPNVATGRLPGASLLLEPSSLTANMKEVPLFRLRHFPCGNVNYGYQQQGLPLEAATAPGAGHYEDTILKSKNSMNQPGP

[3] = target: HiBiT-tagged v3 EML4-ALK wild-type (WT) (Homo sapiens, UniProt Q9HC35+Q9UM73); assay: EML4-ALK HiBiT degradation assay, WT; details: result in words
HiBiT-tagged v3 EML4-ALK wild-type (WT), sequence (Q9UM73 1058-1620 limits assumed, one chain of several): as the sequence (Q9UM73 1058-1620 G1202R limits assumed, one chain of several) above, with R145G counted along it

[4] = Mouse pharmacokinetics, oral and intravenous dosing; details: mice, PK study with oral and iv dosing
FeSSIF solubility = assay type: physicochemical; details: result in words
[5] = tested on: mouse red blood cells (RBCs); assay: In vitro hemolysis assay, mouse RBCs; assay type: cell-based
[6] = tested on: human red blood cells (RBCs); assay: In vitro hemolysis assay, human RBCs; assay type: cell-based
HepG2 cell line [7] = assay: LipidTOX Red phospholipidosis imaging assay; assay type: cell-based
HepG2 cell line [8] = assay: HepG2 viability; assay type: cell-based

Compound: COc1cc(C2CCN(CC3CN(c4ccc5c(c4)C(=O)N(C4CCC(=O)N(C)C4=O)C5=O)C3)CC2)c(C)cc1Nc1ncc(Cl)c(Nc2ccccc2S(=O)(=O)C(C)C)n1 (centres unmarked) [CPD-1224NC, 5-(3-((4-(4-((5-Chloro-4-((2-(isopropylsulfonyl)-phenyl)amino)pyrimidin-2-yl)amino)-5-methoxy-2-methylphenyl)piperidin-1-yl)methyl)azetidin-1-yl)-2-(1-methyl-2,6-dioxopiperidin-3-yl)isoindoline-1,3-dione]
EML4-ALK degradation potency / efficacy (general, clinical mutations) [1]: retains weak degradation activity

Compound: Cc1cc(Nc2ncc(Cl)c(Nc3ccccc3S(=O)(=O)C(C)C)n2)c(OC(C)C)cc1C1CCN(CCOCCOCCNC(=O)CNc2cccc3c2C(=O)N(C2CCC(=O)NC2=O)C3=O)CC1 (centres unmarked) [TL13–112]
degradation activity for G1202R mutation [2]: low degradation activity
shift between cellular ALK occupancy (NanoBRET) and degradation potency, WT [3]: only a small shift

Compound: Cc1cc(Nc2ncc(Cl)c(Nc3ccccc3S(=O)(=O)C(C)C)n2)c(OC(C)C)cc1C1CCNCC1 [ceritinib, reference compound]
phospholipidosis (phospholipid accumulation) (HepG2 cell line [7]): confirmed the phospholipidosis
cytotoxicity (HepG2 cell line [8]): cytotoxicity

Further lines, with some results ahead:

metabolic / microsomal stability (Microsomal): good microsomal stability
RBC lysis in vitro (RBC): RBC lysis was avoided
Compound: COc1cc(C2CCN(CCCC#Cc3cccc4c3CN(C3CCC(=O)NC3=O)C4=O)CC2)c(C)cc1Nc1ncc(Cl)c(Nc2ccccc2S(=O)(=O)C(C)C)n1 (centres unmarked) [CPD-1131]
proteins degraded to any significant extent (MOLT4 cells): five

RBC lysis in vitro (RBC): caused RBC lysis
Compound: COc1cc(CCNCCCCCC#Cc2cccc3c2C(=O)N(C2CCC(=O)NC2=O)C3=O)c(C)cc1Nc1ncc(Cl)c(Nc2ccccc2S(=O)(=O)C(C)C)n1 (centres unmarked) [CPD-198, 4-(7-((4-((5-Chloro-4-((2-(isopropylsulfonyl)-phenyl)amino)pyrimidin-2-yl)amino)-5-methoxy-2-methylphenethyl)amino)hept-1-yn-1-yl)-2-(2,6-dioxopiperidin-3-yl)isoindoline-1,3-dione]

metabolic / microsomal stability (Microsomal): high microsomal stability
Compound: CCc1cc2c(cc1N1CCN(CC3CN(c4ccc5c(c4)C(=O)N(C4CCC(=O)NC4=O)C5=O)C3)CC1)C(C)(C)c1[nH]c3cc(C#N)ccc3c1C2=O (centres unmarked) [CPD-1403, 8-(4-((1-(2-(2,6-Dioxopiperidin-3-yl)-1,3-dioxoisoindolin-5-yl)azetidin-3-yl)methyl)piperazin-1-yl)-9-ethyl-6,6-dimethyl-11-oxo-6,11-dihydro-5H-benzo[b]carbazole-3-carbonitrile]

solubility in fed state simulated intestinal fluid (FeSSIF) (FeSSIF solubility): good solubility
Compound: COc1cc(CCNCCCCCC#Cc2cccc3c2CN(C2CCC(=O)NC2=O)C3=O)c(C)cc1Nc1ncc(Cl)c(Nc2ccccc2S(=O)(=O)C(C)C)n1 (centres unmarked) [CPD-985, 3-(4-(7-((4-((5-Chloro-4-((2-(isopropylsulfonyl)-phenyl)amino)pyrimidin-2-yl)amino)-5-methoxy-2-methylphenethyl)amino)hept-1-yn-1-yl)-1-oxoisoindolin-2-yl)piperidine-2,6-dione]
hemolysis in vivo [4]: hemolysis was also observed
metabolic / microsomal stability (Microsomal): slightly improved metabolic stability relative to CPD-198
in vitro hemolysis [5]: confirmed
in vitro hemolysis [6]: confirmed

RBC lysis in vitro (RBC): did not possess RBC lysis
Compound: COc1cc(C2CCN(CC3CN(c4ccc5c(c4)C(=O)N(C4CCC(=O)NC4=O)C5=O)C3)CC2)c(C)cc1Nc1ncc(Cl)c(Nc2ccccc2S(=O)(=O)C(C)C)n1 (centres unmarked) [CPD-1224, 5-{3-[(4-{4-[(5-Chloro-4-{[2-(propane-2-sulfonyl)phenyl]amino}pyrimidin-2-yl)amino]-5-methoxy-2-methylphenyl}piperidin-1-yl)methyl]azetidin-1-yl}−2-(2,6-dioxopiperidin-3-yl)-2,3-dihydro-1H-isoindole-1,3-dione]
phospholipidosis (phospholipid accumulation) (HepG2 cell line [7]): did not possess these effects
metabolic / microsomal stability (Microsomal): improved metabolic stability relative to the isoindolinone congener CPD-1793
cytotoxicity (HepG2 cell line [8]): did not possess these effects

RBC lysis in vitro (RBC): weak positive
Compound: COc1cc(C2CCN(CCCCCC#Cc3cccc4c3CN(C3CCC(=O)NC3=O)C4=O)CC2)c(C)cc1Nc1ncc(Cl)c(Nc2ccccc2S(=O)(=O)C(C)C)n1 (centres unmarked) [CPD-1108, 3-(4-(7-(4-(4-((5-Chloro-4-((2-(isopropylsulfonyl)phenyl)amino)pyrimidin-2-yl)amino)-5-methoxy-2-methylphenyl)piperidin-1-yl)hept-1-yn-1-yl)-1-oxoisoindolin-2-yl)piperidine-2,6-dione]
